From patent publication US11230593B2, “Compositions and methods for treating and preventing influenza” (VISTERRA, INC., priority 2019, dated 2022)
pEC50: −log10 of the molar value. Read-outs that look alike come from different tables or passages of the source.

How the values were obtained:
[1] = test system: A/Hong Kong/4801/2014 (H3N2); assay: microbe, parasite or virus in culture; format: cell-based, Influenza A
[2] = test system: A/Michigan/45/2015 (H1N1); assay: microbe, parasite or virus in culture; format: cell-based, Influenza A
[3] = test system: A/California/04/2009 (H1N1); assay: microbe, parasite or virus in culture; format: cell-based; conditions: Influenza A virus
[4] = test system: A/PR/8/1934 (H1N1) (wild-type); assay: microbe, parasite or virus in culture; format: cell-based; conditions: Influenza A virus
[5] = in vivo, cited from earlier work
[6] = test system: MDCK cells
[7] = read-out: EC50 (μM) - Replicate 1
[8] = read-out: EC50 (μM) - Replicate 2

Compound: CCC(CC)[C@H](NC(C)=O)[C@@H]1[C@H](O)[C@@H](C(=O)O)C[C@H]1N=C(N)N.O.O.O [Peramivir (PER), Peramivir trihydrate]
- EC50 [1]: the most potent NAI
- pEC50 ([1]; read-out: EC50): 7.24
- EC50 [2, 7]: 0.01 µM
- EC50 [2, 8]: < 0.006 µM

Compound: O=C1c2c(O)c(=O)ccn2N([C@@H]2c3ccccc3SCc3c2ccc(F)c3F)[C@@H]2COCCN12 [baloxavir, Baloxavir]
- pEC50 ([1]; Influenza A virus, H3N2): 9.10
- pEC50 [3]: 9.00
- pEC50 [4]: ~9.00
- Cmax ([5]; 40 mg): 96.4 ng/mL
- Cmax ([5]; 80 mg): 107 ng/mL

Compound: Oseltamivir acid [Oseltamivir (OSE)]
- pEC50 ([1]; read-out: EC50): 6.12
- EC50 [2, 7]: 0.18 µM
- EC50 [2, 8]: 0.024 µM
- CC50 [6]: >50 µg/mL

Compound: CC(=O)N[C@H]1[C@H]([C@H](O)[C@H](O)CO)OC(C(=O)O)=C[C@@H]1N=C(N)N [Zanamivir (ZAN), Zanamivir]
- pEC50 ([1]; Influenza A virus, H3N2, 40 h): 5.59
- EC50 ([2]; Influenza A virus, H1N1, MDCK, read-out: EC50 (μM) - Replicate 1): 0.06 µM
- EC50 ([2]; Influenza A virus, H1N1, MDCK, read-out: EC50 (μM) - Replicate 2): 0.034 µM
